Reference: US20020028807A1, “Non-nucleoside reverse transcriptase inhibitors” (priority 2000, published 2002)

How the values were obtained:
[1] = system: HIV coding for mutant reverse transcriptase K103N; assay: ELISA (p24) assay of HIV replication in C8166 cell culture, K103N virus; type: cell-based, HIV-1; settings: Human immunodeficiency virus 1, C8166, 72 h, read-out: EC50 K103N
Description: (§1) Compounds of the invention were tested for their ability to inhibit HIV replication in cell culture in a 96-well plate assay. Complete RPMI 1640, consisting of RPMI 1640+10% fetal bovine serum, 10 μg/ml gentamycin and 10 μM β-mercaptoethanol was used for dilution of the compound as well as cell growth medium. The T lymphocyte cell line C8166 was infected at a multiplicity of infection of 0.001 with viruses coding for wild-type and mutant reverse transcriptase. Cells were then incubated for three days in the presence of serial dilutions of the compounds of the invention. The supernatant was pooled from eight replica wells and the concentration of extracellular p24 was determined using a commercially available HIV-1 p24 antigen assay kit (Beckman-Coulter®). The level of inhibition (% inhibition) was calculated with the following equation: [formula]

[2] = molecular target: T1, HIV-1 RT Y181C (Human immunodeficiency virus type 1 group M subtype B, UniProt P03366, Y780C); assay: Reverse transcriptase (RT) assay, Y181C mutant; type: biochemical
T1 construct: an HIV RT clone pKRT2 containing only the RT p66 gene regulated by the lac operon/trc promoter; made in house; host or cells: E. coli JM109, vector pKK233-2
Method in brief: (§2)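 First, RT mutants were generated by site-directed mutagenesis of the BH10 p66 gene, expressed in E. coli and purified as p66/p51 heterodimer. Then compounds were tested for inhibition of DNA synthesis on biotinylated oligo d(G)-primed poly r(C), with 3H-dGTP supplying label.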

[3] = molecular target: T2, HIV-1 RT K103N/V108I (Human immunodeficiency virus type 1 group M subtype B, UniProt P03366, K702N/V707I); assay: Reverse transcriptase (RT) assay, K103N/V108I mutant; type: biochemical
T2 construct: an HIV RT clone pKRT2 containing only the RT p66 gene regulated by the lac operon/trc promoter; made in house; host or cells: E. coli JM109, vector pKK233-2
Method in brief: as §2

[4] = system: HIV coding for mutant reverse transcriptase K103N/Y181C; assay: ELISA (p24) assay of HIV replication in C8166 cell culture, K103N/Y181C virus; type: cell-based, HIV-1; settings: Human immunodeficiency virus 1, C8166, 72 h, read-out: EC50 K103N/Y181C
Description: as §1

[5] = system: HIV coding for mutant reverse transcriptase K103N/P225H; assay: ELISA (p24) assay of HIV replication in C8166 cell culture, K103N/P225H virus; type: cell-based, HIV-1; settings: Human immunodeficiency virus 1, C8166, 72 h, read-out: EC50 K103N/P225H
Description: as §1

[6] = system: HIV coding for wild-type reverse transcriptase (WT RT); assay: ELISA (p24) assay of HIV replication in C8166 cell culture, wild-type RT virus; type: cell-based, HIV-1; settings: Human immunodeficiency virus 1, C8166, 72 h, read-out: EC50 WT RT
Method in brief: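 C8166 T cells infected at MOI 0.001 with wild-type or mutant RT HIV, then grown 3 days with serial compound dilutions in RPMI 1640 + 10% FBS. Extracellular p24 in supernatant pooled from eight replica wells measured by ELISA; % inhibition calculated from p24 levels.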

[7] = molecular target: T3, HIV-1 RT K103N/P225H (Human immunodeficiency virus type 1 group M subtype B, UniProt P03366, K702N/P824H); assay: Reverse transcriptase (RT) assay, K103N/P225H mutant; type: biochemical
T3 construct: an HIV RT clone pKRT2 containing only the RT p66 gene regulated by the lac operon/trc promoter; made in house; host or cells: E. coli JM109, vector pKK233-2
Method in brief: as §2

[8] = system: HIV coding for mutant reverse transcriptase V106A; assay: ELISA (p24) assay of HIV replication in C8166 cell culture, V106A virus; type: cell-based, HIV-1; settings: Human immunodeficiency virus 1, C8166, 72 h, read-out: EC50 V106A
Description: as §1

[9] = molecular target: T4, HIV-1 RT wild-type (WT) (Human immunodeficiency virus type 1 group M subtype B, UniProt P03366); assay: Reverse transcriptase (RT) assay, wild-type enzyme; type: biochemical
T4 construct: an HIV RT clone pKRT2 containing only the RT p66 gene regulated by the lac operon/trc promoter; made in house; host or cells: E. coli JM109, vector pKK233-2

SMILES | EC50 [1] | IC50 [2] | IC50 [3] | EC50 [4] | EC50 [5] | EC50 [6] | IC50 [7] | EC50 [8] | IC50 [9]
CCN1c2ncc(CCOc3cc[n+]([O-])c4ccccc34)cc2C(=O)N(C)c2cccnc21 [compound 21, 5,11-Dihydro-11-ethyl-5-methyl-8-{2-{(1-oxido-4-quinolinyl)oxy}ethyl}-6H-dipyrido[3,2-b:2′,3′-e][1,4]diazepin-6-one] | 3.5 nM | 51 nM | 120 nM | 4.3 nM | 2.9 nM | 0.53 nM | 40 nM | 65 nM | 17 nM
CCN1c2ncc(CCOc3cc[n+]([O-])c4ccccc34)cc2C(=O)N(C)c2ccc(Cl)nc21 [compound 17, 2-Chloro-5,11-dihydro-11-ethyl-5-methyl-8-{2-{(1-oxido-4-quinolinyl)oxy}-ethyl}-6H-dipyrido[3,2-b:2′,3′-e][1,4]diazepin-6-one] | 1.5 nM | 29 nM | 83 nM | 2.3 nM | 1.2 nM | 0.34 nM | 23 nM | 24 nM | 14 nM
CCN1c2ncc(CCOc3cc[n+]([O-])c4ccccc34)cc2C(=O)N(C)c2ccc(F)nc21 [compound 11, 5,11-Dihydro-11-ethyl-2-fluoro-5-methyl-8-{2-{(1-oxido-4-quinolinyl)oxy}-ethyl}-6H-dipyrido[3,2-b:2′,3′-e][1,4]diazepin-6-one] | 2 nM | 27 nM | 55 nM | 7.5 nM | 2 nM | 0.34 nM | 15 nM | 28 nM | 9.5 nM
